In patent US20110034418A1, “PHARMACEUTICAL COMPOSITION WITH BISPHOSPHONATE” (priority 2008, published 2011) one finds IC50 data, which are given here for 1 compound.

The test deals with T1, Human farnesyl pyrophosphate synthase (FPPS, Swissprot ID: P14324) (Homo sapiens, UniProt P14324).
T1 construct: made in house
T1 sequence (P14324 67-419 limits assumed): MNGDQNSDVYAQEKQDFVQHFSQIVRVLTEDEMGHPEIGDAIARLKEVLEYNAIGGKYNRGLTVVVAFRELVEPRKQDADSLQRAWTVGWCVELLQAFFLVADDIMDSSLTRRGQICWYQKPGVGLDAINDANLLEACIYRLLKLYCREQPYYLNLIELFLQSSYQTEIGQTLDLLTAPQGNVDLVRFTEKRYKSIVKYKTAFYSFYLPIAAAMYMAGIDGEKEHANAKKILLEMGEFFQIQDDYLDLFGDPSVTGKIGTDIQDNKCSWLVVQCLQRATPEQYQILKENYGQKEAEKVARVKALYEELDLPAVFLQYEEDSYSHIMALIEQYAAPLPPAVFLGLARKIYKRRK
The test can be described thus: label-free LC/MS/MS assay for farnesyl pyrophosphate synthase (FPPS), cell-free in vitro. Type of test: biochemical. The settings on record: 5 min pre-incubation, GPP/IPP substrates, FPP quantified by LC/MS/MS. As to the method:
For example, in a cell-free in vitro assay the superiority of compounds of the formula I over compounds already known can be shown. Briefly, the reaction proceeds in the presence of enzyme and an inhibitor of the formula I, and the reaction product (farneysyl pyrophosphate) is quantified by LC/MS/MS.
In detail, the inhibitor and enzyme are pre-incubated before adding the substrates
The assay is a label-free assay for farnesyl pyrophosphate synthase (FPPS) based on LC/MS/MS. This method quantifies in-vitro untagged farnesyl pyrophosphate (FPP) and is suitable for high throughput screening (HTS) to find inhibitors of FPPS and for the determinations of IC50 values of candidate compounds. The analysis time is 2.0 minutes with a total cycle time of 2.5 minutes. The analysis can be formatted for 384-well plates resulting in an analysis time of 16 hours per plate.
Pentanol, methanol, and isopropyl alcohol are HPLC grade and obtained from Fisher Scientific. DMIPA is from Sigma-Aldrich. Water is from an in-house Milli-Q system. […]
The Multiple Reaction Monitoring (MRM) transitions monitored are 381−>79− for FPP and 397−>159− for FSPP at a collision energy of 22 eV and a collision cell pressure of 2.1×10^−3 mbar of Ar. […]
The total cycle time per sample is 2.5 minutes. Since the analysis is formatted for 384-well plates, a plate is analyzed in 16 hours. […]

The IC50 is the concentration that inhibits the measured activity by half. Low values mean greater potency, high ones weaker potency. As for `CCc1cncn1CC(O)(P(=O)(O)O)P(=O)(O)O` [Reference-Example 2, [2-(5-Ethyl-imidazol-1-yl)-1-hydroxy-1-phosphono-ethyl]-phosphonic acid], the IC50 fell in the range of 2.4 to 3.1 nM.
